In patent US20110034507A1, “FARNESOID X RECEPTOR AGONISTS” (SMITHKLINE BEECHAM CORPORATION, priority 2007, published 2011):

Molecular target: T1, Human FXRα Ligand Binding Domain (Homo sapiens, UniProt Q96RI1)
T1 construct: polyhistidine (pRSET-A vector leader) (N); made in house; host or cells: E. coli BL21 (DE3), pRSET-A vector
T1 sequence (Q96RI1 237-472 isoform Q96RI1-2): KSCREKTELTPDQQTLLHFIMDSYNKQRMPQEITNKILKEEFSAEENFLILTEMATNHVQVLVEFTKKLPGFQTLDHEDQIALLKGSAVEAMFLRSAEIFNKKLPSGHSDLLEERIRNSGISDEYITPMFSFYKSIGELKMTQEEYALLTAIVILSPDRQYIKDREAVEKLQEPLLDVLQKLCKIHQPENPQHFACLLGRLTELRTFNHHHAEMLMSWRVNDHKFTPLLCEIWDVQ
Assay: FXR Cofactor Binding Assay (ligand mediated SRC-1 cofactor peptide interaction, time resolved fluorescence)
Type: biochemical
Details: FXRα LBD / SRC-1 (LCD2, 676-700) peptide, TRF; read-out: Activity (pEC50) (converted)
Excerpt: Determination of a ligand mediated cofactor peptide interaction to quantify ligand binding to the nuclear receptor Farnesoid X Receptor (FXR). The method measures the ability of putative ligands to modulate the interaction between the purified bacterial expressed FXRα ligand binding domain (LBD) and a synthetic biotinylated peptide based on residues 676-700 of steroid receptor coactivator-1 (SRC-1) (LXXLL-containing domain-2 where L is the amino acid leucine and X indicates any other amino acid (LCD2), 676-700). The sequence of the SRC-1 peptide used is as published in Iannone, M. A., et al., 2001 Cytometry 44:326-337 where the N-terminus was biotinylated (B) and the C-terminus was amidated. Detection of the associated complex was measured by time resolved fluorescence (TRF). The purified LBD of FXR was labeled with biotin, then mixed with stoichiometric amounts of allophycocyanin (APC) labeled streptavidin (Molecular Probes). The biotinylated peptide was then mixed with a ½ stoichiometric amount of europium labeled streptavidin (Wallac Inc). Each was then blocked with a 5 fold excess of biotin and allowed to equilibrate for 15 min. Equimolar amounts of receptor and peptide were mixed together and were allowed to equilibrate for at least 30 min prior to the addition to either a variable or constant concentrations of the sample for which the affinity is to be determined. After equilibration, the time-resolved fluorescent signal was quantitated using a fluorescent plate reader. The affinity of the test compound was estimated from a plot of fluorescence versus concentration of test compound added.
Ligands that promote the complex formation induce a concentration-dependent increase in time-resolved fluorescent signal.
Human FXRα Ligand Binding Domain (FXRα LBD) was expressed in E. coli strain BL21 (DE3) as an amino-terminal polyhistidine tagged fusion protein. Expression was under the control of an isopropyl-β-D-thiogalactopyranoside (IPTG) inducible T7 promoter. DNA encoding this recombinant protein is subcloned into the pRSET-A expression vector (Invitrogen). The coding sequence of Human FXRα LBD was derived from Genbank accession number U 68233 (amino acids 237 to 472).
Ten-liter fermentation batches were grown in Rich PO4 media with 0.1 mg/mL Ampicillin at 25° C. for 12 hours, cooled to 9° C. and held at that temperature for 36 hours to a density of OD600=14. At this cell density, 0.25 mM IPTG is added and induction proceeded for 24 hours at 9° C., to a final OD600=16. Cells are harvested by centrifugation (20 minutes, 3500×gravity, 4° C.), and concentrated cell slurries were stored in phosphate buffered saline (PBS) at […].
Routinely, 30-40 g cell paste (equivalent to 2-3 liters of the fermentation batch) was resuspended in 200-250 mL Tris buffered saline (TBS), pH 7.2 (25 mM Tris-hydroxymethylamino methane (Tris), 150 mM sodium chloride). Cells were lysed by passing 3 times through a French Press and cell debris was removed by centrifugation (30 minutes, 20,000×gravity, 4° C.). The cleared supernatant was filtered through course pre-filters, and TBS, pH 7.2, 500 mM imidazole was added to obtain a final imidazole concentration of 50 mM. This lysate was loaded onto a column (6×8 cm) packed with Sepharose [Ni^++ charged] Chelation resin (Pharmacia) and pre-equilibrated with TBS pH 7.2/50 mM imidazole. After washing to baseline absorbance with equilibration buffer, the column was washed with one column volume of TBS pH 7.2 containing 90 mM imidazole. FXRα LBD was eluted directly with 365 mM imidazole. Column fractions were pooled and dialyzed against TBS, pH 7.2, containing 0.5 mM EDTA and 5 mM DTT. The dialyzed protein sample was concentrated using Centri-prep 10 K (Amicon) and subjected to size exclusion, using a column (3×90 cm) packed with Sepharose S-75 resin (Pharmacia) pre-equilibrated with TBS, pH 7.2, containing 0.5 mM ethylene diamine tetraacetic acid (EDTA) and 5 mM dithiothreitol (DTT).

`CC(C)c1onc(-c2c(Cl)cccc2Cl)c1COc1ccc2c(ccn2C(=O)c2cccc(C(=O)O)c2)c1` [Example 10, 3-{[5-({[3-(2,6-Dichlorophenyl)-5-(1-methylethyl)-4-isoxazoly]methyl}oxy)-1H-indol-1-yl]carbonyl}benzoic acid] and `CC(C)c1onc(-c2c(Cl)cccc2Cl)c1COc1ccc2c(ccn2S(=O)(=O)c2cccc(C(=O)O)c2)c1` [Example 43, 3-{[5-({[3-(2,6-Dichlorophenyl)-5-(1-methylethyl)-4-isoxazolyl]methyl}oxy)-1H-indol-1-yl]sulfonyl}benzoic acid] fall in the same range of EC50: 0.102 to 1 µM for the first, 0.102 to 1 µM for the second.

`CC(C)c1onc(-c2c(Cl)cccc2Cl)c1COc1ccc2cc(-c3cccc(C(=O)O)n3)ccc2c1` [Example 18, 6-[6-({[3-(2,6-Dichlorophenyl)-5-(1-methylethyl)-4-isoxazolyl]methyl}oxy)-2-naphthalenyl]-2-pyridinecarboxylic acid] and `CC(C)c1onc(-c2c(Cl)cccc2Cl)c1COc1ccc2cc(-c3ccnc(C(=O)O)c3)ccc2c1` [Example 20, 4-[6-({[3-(2,6-Dichlorophenyl)-5-(1-methylethyl)-4-isoxazolyl]methyl}oxy)-2-naphthalenyl]-2-pyridinecarboxylic acid] fall in the same range of EC50: 0.102 to 1 µM for the first, 0.102 to 1 µM for the second.

First: CC(C)c1onc(-c2c(Cl)cccc2Cl)c1COc1ccc2sc(-c3cccc(C(=O)O)c3)cc2c1 [Example 54, 3-[5-({[3-(2,6-Dichlorophenyl)-5-(1-methylethyl)-4-isoxazolyl]methyl}oxy)-1-benzothien-2-yl]benzoic acid]
Second: CC(C)c1onc(-c2c(Cl)cccc2Cl)c1COc1ccc2ccc(-c3cccc(C(=O)O)c3)cc2c1 [Example 33, 3-[7-({[3-(2,6-Dichlorophenyl)-5-(1-methylethyl)-4-isoxazolyl]methyl}oxy)-2-naphthalenyl]benzoic acid]
The EC50 of the first is lower: under 0.1 µM for the first, 0.102 to 1 µM for the second.

`CC(C)c1onc(-c2c(Cl)cccc2Cl)c1COc1ccc2c(ccn2C(=O)N2CC[C@@H](C(=O)O)C2)c1` [Example 53, (3R)-1-{[5-({[3-(2,6-Dichlorophenyl)-5-(1-methylethyl)-4-isoxazolyl]methyl}oxy)-1H-indol-1-yl]carbonyl}-3-pyrrolidinecarboxylic acid] and `Cc1ccc(Cn2ccc3cc(OCc4c(-c5c(Cl)cccc5Cl)noc4C(C)C)ccc32)cc1C(=O)O` [Example 48, 5-{[5-({[3-(2,6-Dichlorophenyl)-5-(1-methylethyl)-4-isoxazolyl]methyl}oxy)-1H-indol-1-yl]methyl}-2-methylbenzoic acid] fall in the same range of EC50: 0.102 to 1 µM for the first, 0.102 to 1 µM for the second.

First: CC(C)c1onc(CNc2c(Cl)cccc2Cl)c1COc1ccc2c(ccn2Cc2cccc(C(=O)O)c2)c1 [Example 4, 3-{[5-({[3-{[(2,6-dichlorophenyl)amino]methyl}-5-(1-methylethyl)-4-isoxazolyl]methyl}oxy)-1H-indol-1-yl]methyl}benzoic acid]
Second: CC(C)c1onc(COc2c(Cl)cccc2Cl)c1COc1ccc2c(ccn2Cc2cccc(C(=O)O)c2)c1 [Example 15, 3-{[5-({[3-{[(2,6-Dichlorophenyl)oxy]methyl}-5-(1-methylethyl)-4-isoxazolyl]methyl}oxy)-1H-indol-1-yl]methyl}benzoic acid]
The EC50 of the first is higher: 1.02 to 10 µM for the first, 0.102 to 1 µM for the second.

Compared with `CC(C)c1onc(-c2c(Cl)cccc2Cl)c1COc1ccc2c(ccn2Cc2ccc(-c3nnn[nH]3)cc2)c1` [Example 46, 5-({[3-(2,6-Dichlorophenyl)-5-(1-methylethyl)-4-isoxazolyl]methyl}oxy)-1-{[4-(1H-tetrazol-5-yl)phenyl]methyl}-1H-indole], `CC(C)c1onc(-c2c(Cl)cccc2Cl)c1COc1ccc2c(ccn2Cc2cccc(-c3nnn[nH]3)c2)c1` [Example 12, 5-({[3-(2,6-Dichlorophenyl)-5-(1-methylethyl)-4-isoxazolyl]methyl}oxy)-1-{[3-(1H-tetrazol-5-yl)phenyl]methyl}-1H-indole] is higher in EC50: under 0.1 µM for the first, 0.102 to 1 µM for the second.

`CC(C)c1onc(-c2c(Cl)cccc2Cl)c1COc1ccc2cc(-c3cncc(C(=O)O)c3)ccc2c1` [Example 17, 5-[6-({[3-(2,6-Dichlorophenyl)-5-(1-methylethyl)-4-isoxazolyl]methyl}oxy)-2-naphthalenyl]-3-pyridinecarboxylic acid] and `CC(C)c1onc(-c2c(Cl)cccc2Cl)c1COc1ccc2cc(-c3ccc(F)c(C(=O)O)c3)ccc2c1` [Example 35, 5-[6-({[3-(2,6-Dichlorophenyl)-5-(1-methylethyl)-4-isoxazolyl]methyl}oxy)-2-naphthalenyl]-2-fluorobenzoic acid] fall in the same range of EC50: 0.102 to 1 µM for the first, 0.102 to 1 µM for the second.

`CC(C)c1onc(-c2c(Cl)cccc2Cl)c1COc1ccc2cc(-c3cccc(N(S(=O)(=O)C(F)(F)F)S(=O)(=O)C(F)(F)F)c3)ccc2c1` [Example 26, N-{3-[6-({[3-(2,6-Dichlorophenyl)-5-(1-methylethyl)-4-isoxazolyl]methyl}oxy)-2-naphthalenyl]phenyl}-1,1,1-trifluoro-N-[(trifluoromethyl)sulfonyl]methanesulfonamide] and `CC(C)c1onc(-c2c(Cl)cccc2Cl)c1COc1ccc2cc(-c3cccc(OC(F)(F)F)c3)ccc2c1` [Example 30, 3-(2,6-Dichlorophenyl)-5-(1-methylethyl)-4-{[(6-{3-[(trifluoromethyl)oxy]phenyl}-2-naphthalenyl)oxy]methyl}isoxazole] fall in the same range of EC50: 0.102 to 1 µM for the first, 0.102 to 1 µM for the second.

`CC(C)c1onc(-c2c(Cl)cccc2Cl)c1COc1ccc2cc(-c3ccc(NS(=O)(=O)C(F)(F)F)cc3)ccc2c1` [Example 32, N-{4-[6-({[3-(2,6-dichlorophenyl)-5-(1-methylethyl)-4-isoxazolyl]methyl}oxy)-2-naphthalenyl]phenyl}-1,1,1-trifluoromethanesulfonamide] and `CC(=O)N(C(C)=O)c1cccc(-c2ccc3cc(OCc4c(-c5c(Cl)cccc5Cl)noc4C(C)C)ccc3c2)c1` [Example 27, N-acetyl-N-{3-[6-({[3-(2,6-dichlorophenyl)-5-(1-methylethyl)-4-isoxazolyl]methyl}oxy)-2-naphthalenyl]phenyl}acetamide] fall in the same range of EC50: 0.102 to 1 µM for the first, 0.102 to 1 µM for the second.

First: CC(C)c1onc(-c2ccccc2OC(F)(F)F)c1COc1ccc2c(ccn2Cc2cccc(C(=O)O)c2)c1 [Example 7, 3-[(5-{[(5-(1-Methylethyl)-3-{2-[(trifluoromethyl)oxy]phenyl}-4-isoxazolyl)methyl]oxy}-1H-indol-1-yl)methyl]benzoic acid]
Second: CC(C)c1onc(-c2c(Cl)cccc2Cl)c1COc1ccc2[nH]cc(Cc3cccc(C(=O)O)c3)c2c1 [Example 50, 3-{[5-({[3-(2,6-Dichlorophenyl)-5-(1-methylethyl)-4-isoxazolyl]methyl}oxy)-1H-indol-3-yl]methyl}benzoic acid]
The EC50 of the first is lower: 0.102 to 1 µM for the first, 1.02 to 10 µM for the second.

First: CC(C)c1onc(-c2c(Cl)cccc2Cl)c1CNc1nc2ccc(-c3cccc(C(=O)O)c3)cc2s1 [Example 37, 3-[2-({[3-(2,6-Dichlorophenyl)-5-(1-methylethyl)-4-isoxazolyl]methyl}amino)-1,3-benzothiazol-6-yl]benzoic acid]
Second: CC(C)c1onc(-c2c(Cl)cccc2Cl)c1COc1ccc2c(c1)CC(=O)N(c1cccc(C(=O)O)c1)C2 [Example 45, 3-[6-({[3-(2,6-Dichlorophenyl)-5-(1-methylethyl)-4-isoxazolyl]methyl}oxy)-3-oxo-3,4-dihydro-2(1H)-isoquinolinyl]benzoic acid]
The EC50 of the first is lower: 0.102 to 1 µM for the first, 1.02 to 10 µM for the second.
